Measured values reported in patent publication US20090275632A1, “Methods of diagnosis and treatment” (OncoMethylome Sciences SA, priority 2006, published 2009).

Assays:
miR-124a [1] = experiment: Expression of mature miR-124a by quantitative RT-PCR in HCT-116 cells; assay type: cell-based, human; details: 5-aza-2-deoxycytidine (1 µM) for 72 h
Description: GAPDH was used as internal control. PCR products were analyzed in a 3% agarose gel. Realtime PCR analysis of miRNAs was performed as previously described (Biotechniques 39:519-525). In brief, total RNA was isolated from cell lines or tissues using Trizol reagent and the small RNA fraction was further isolated using the miRVANA kit (Ambion). 500 ng of the small RNA fraction was polyadenylated by poly(A) polymerase (PAP, Ambion) at 37° C. for 1 hr in a 6 uL reaction. After phenol-chloroform extraction and ethanol precipitation the polyadenylated small RNAs were reversed transcribed according to the manufacturer's protocols using 200U SuperScript-II Reverse Transcriptase (RT, Invitrogen) and 0.5 ug poly(T) adapter (GCG AGC ACA GM TTAATACGACTCACTATAGGTTTTTTTTTT TTV N) (SEQ ID NO:36). The small cDNAs were then treated with RNAse H at 37° C. for 1 hr and finally diluted 240 fold. Negative controls were included in both PAP and RT reactions. […] Finally, the melting temperature for each miRNA was experimentally determined from the thermal dissociation curves using ABI Prism 7900HT (Applied Biosystems, Foster City, Calif., USA). […]
Each set of PCR reactions included a dilution series of a reference cDNA to be used for quantification.

miR-124a [2] = experiment: Expression analyses of miR-124a by RT-PCR in MCF-7 breast cancer cell line; details: MCF-7 cells (miR-124a methylated)
miR-124a CpG island = experiment: Chromatin immunoprecipitation assay for histone modification marks and methyl-CpG binding domain proteins; assay type: cell-based, human; details: HCT-116 cells, 5-aza-2-deoxycytidine (1 µM) for 72 h
Description: Standard ChIP assays were performed as previously described (3). In brief, cells were treated with 1% formaldehyde for 15 min. Then, chromatin was sheared with a Bioruptor™ (Diagenode) to an average length of 0.4-0.8 kb for this analysis. The following antibodies were used: anti-MeCP2 (ab3752), anti-MBD2 (ab3754), and anti-trimethyl-K4 histone H3 (ab8580) (ab1220) (Abcam) and anti-acetyl H3 (06-599) and anti-acetyl H4 (06-598) (Upstate biotechnologies). PCR amplification was performed in 20 μl with specific primers for each of the analyzed promoters.
for miR-124a1 5′-CM AGA GCC TTT GGA AGA CG-3′ (sense) (SEQ ID NO: 40) and 5′-GGAAGAGGGGTGGGTAGAAG-3′ (antisense) (SEQ ID NO: 41), for miR-124a2 5′-GCGTGGTCCTTAAAAACCTG-3′ (sense) (SEQ ID NO: 42) and 5′-CCATGCCATTTACAGCACAC-3′ (antisense) (SEQ ID NO: 43); and for miR-124a3 5′-GGA GM GTG TGG GCT CCT C-3′ (sense) (SEQ ID NO: 44) and 5′-AAT CM GGT CCG CTG TGA AC-3′ (antisense) (SEQ ID NO:45). For each promoter, the sensitivity of PCR amplification was evaluated on serial dilutions of total DNA collected after sonication (input fraction). PCR amplifications were carried out with a variable number of cycles at 94° C. for 30 s, 60° C. for 30 s and 72° C. for 30 s. The amplified DNA was separated on 2% agarose gel and visualized with ethidium bromide.

CDK6 mRNA = experiment: RT-PCR analyses of CDK6 mRNA in HCT-116 cells; assay type: cell-based, human; details: AZA 1 µM 72 h, miR-124a precursor 100 nM RNA duplexes, 48 h after transfection
miR-124a [3] = experiment: Expression of precursor miR-124a by conventional RT-PCR in HCT-116 cells; assay type: cell-based, human; details: 5-aza-2-deoxycytidine (1 µM) for 72 h
Description: GAPDH was used as internal control. PCR products were analyzed in a 3% agarose gel. Realtime PCR analysis of miRNAs was performed as previously described (Biotechniques 39:519-525). In brief, total RNA was isolated from cell lines or tissues using Trizol reagent and the small RNA fraction was further isolated using the miRVANA kit (Ambion). 500 ng of the small RNA fraction was polyadenylated by poly(A) polymerase (PAP, Ambion) at 37° C. for 1 hr in a 6 uL reaction. After phenol-chloroform extraction and ethanol precipitation the polyadenylated small RNAs were reversed transcribed according to the manufacturer's protocols using 200U SuperScript-II Reverse Transcriptase (RT, Invitrogen) and 0.5 ug poly(T) adapter (GCG AGC ACA GM TTAATACGACTCACTATAGGTTTTTTTTTT TTV N) (SEQ ID NO:36). The small cDNAs were then treated with RNAse H at 37° C. for 1 hr and finally diluted 240 fold. Negative controls were included in both PAP and RT reactions. Moreover, two additional RT reactions were performed using half and double the input of polyadenylated small RNAs to ensure the linearity of the reverse transcription step. Finally, the melting temperature for each miRNA was experimentally determined from the thermal dissociation curves using ABI Prism 7900HT (Applied Biosystems, Foster City, Calif., USA). […]

CDK6 = experiment: Western blot for CDK6 in HCT-116 cells; assay type: cell-based, human; details: AZA 1 µM 72 h, miR-124a precursor 100 nM RNA duplexes, 48 h after transfection
From the text: (§1) Analyses of CDK6 and phosphorylated Rb expression by Western blot, immunohistochemistry and RT-PCR. We collected cells by centrifugation and washed cell pellets twice with phosphate-buffered saline buffer. Total extracts were fractionated on a SDS-PAGE gel and transferred to a polyvinylidene difluoride membrane with […] (Immobilon PSQ, Millipore). The membranes were blocked in 5% milk PBS-T (phosphate-buffered saline with 0.1% Tween-20) and immunoprobed with antibodies against CDK6 (1:1000; Cell Signaling) and P-Rb-S807/811 (1:1000; Cell Signaling). An antibody to β-actin (1:5000; Sigma) was used as a loading control. Immunoreactive bands were visualized using a chemiluminescent substrate (Amersham) after incubation of the membrane with secondary antibodies conjugated to horseradish peroxidase.

Rb = experiment: Western blot for phosphorylated Rb (P-Rb-S807/811) in HCT-116 cells; assay type: cell-based, human; details: AZA 1 µM 72 h, miR-124a precursor 100 nM RNA duplexes, 48 h after transfection
From the text: as §1

[4] = listed as DNA demethylating agent

Structure (SMILES): Nc1ncn([C@H]2C[C@H](O)[C@@H](CO)O2)c(=O)n1 [AZA, 5-aza-2′-deoxycytidine]
- mature miR-124a expression (miR-124a [1]): miR-124a upregulation
- mature miR-124a expression (miR-124a [1]; [4]): restored
- miR-124a expression (miR-124a [2]): miR-124a upregulation
- histone modification marks linked to transcriptional activity (acetylation of histones H3 and H4, trimethylation of lysine 4 of histone H3) in the miR-124a CpG island (miR-124a CpG island): the opposite scenario is observed
- occupancy of the miR-124a CpG island by MBDs (MeCP2 and MBD2) (miR-124a CpG island): the opposite scenario is observed
- histone modification marks linked to transcriptional activity (acetylation of histones H3 and H4, trimethylation of lysine 4 of histone H3) in the miR-124a CpG island (miR-124a CpG island; listed as demethylating agent): emergence of the histone marks of active transcription
- occupancy of the miR-124a CpG island by MBDs (MeCP2 and MBD2) (miR-124a CpG island; listed as demethylating agent): release of binding by MBDs
- CDK6 mRNA expression level (CDK6 mRNA): do not demonstrate any change
- CDK6 mRNA expression level (CDK6 mRNA; listed as demethylating agent): no difference
- precursor miR-124a expression (miR-124a [3]): miR-124a upregulation
- precursor miR-124a expression (miR-124a [3]; [4]): restored
- CDK6 protein level (CDK6): reduction in CDK6 levels
- CDK6 protein level (CDK6; listed as demethylating agent): CDK6 downregulation
- phosphorylation of Rb in the residues 807 and 811 (Rb; [4]): hypophosphorylated
- phosphorylation of Rb in the residues 807 and 811 (Rb; listed as demethylating drug): reduced Rb phosphorylation
